Measured values published in article PMC2843614, “Protein engineering of conger eel galectins by tracing of molecular evolution using probable ancestral mutants” (BMC Evolutionary Biology, 2010).
Like-named read-outs stand apart in the source and are kept apart here.

What was measured:
Assay in all cases: frontal affinity chromatography (FAC)
[1] = biological target: T1, Con-anc (probable ancestral form of congerins); format: binding, synthetic construct; settings: labelled compound (pyridylaminated sugar)
T1 construct: recombinant from plasmid pTV-Con-anc in Escherichia coli JM109; differs from ConI at 31 residues; purified by HCl-treated Sepharose 4B and HiTrap Q
Excerpt: frontal affinity chromatography (FAC) on Con-anc (probable ancestral form of congerins)

congerin II (ConII) = biological target: T2, congerin II (ConII) (Conger myriaster, UniProt Q9YIC2); format: binding
T2 construct: full length, 135 residues (natural form N-acetylated); proto-type galectin, dimer
Excerpt: frontal affinity chromatography (FAC) on congerin II (ConII)

congerin I (ConI) = biological target: T3, congerin I (ConI) (Conger myriaster, UniProt P26788); format: binding
T3 construct: full length, 136 residues (natural form N-acetylated); proto-type galectin, dimer
Excerpt: frontal affinity chromatography (FAC) on congerin I (ConI)

[2] = labelled compound (pyridylaminated sugar)

T2 sequence (Q9YIC2 2-136): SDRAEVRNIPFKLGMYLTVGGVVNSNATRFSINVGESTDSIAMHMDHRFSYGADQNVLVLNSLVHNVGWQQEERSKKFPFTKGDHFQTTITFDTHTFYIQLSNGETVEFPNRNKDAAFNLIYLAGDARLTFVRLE
T3 sequence (P26788 whole entry): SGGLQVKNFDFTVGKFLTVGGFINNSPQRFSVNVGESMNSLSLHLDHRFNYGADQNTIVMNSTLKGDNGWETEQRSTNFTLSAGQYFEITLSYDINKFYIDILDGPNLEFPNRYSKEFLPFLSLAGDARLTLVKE

| Compound | Kd [1] [µM] | Kd (congerin II (ConII); [2]) [µM] | Kd ([1]; read-out: Con-anc-L5 / Kd) [µM] | Kd (congerin I (ConI)) [µM] | Kd (congerin II (ConII)) [µM] | Kd ([1]; read-out: Con-anc-N/C/L5 / Kd) [µM] | Kd (congerin I (ConI); [2]) [µM] |
| --- | --- | --- | --- | --- | --- | --- | --- |
| CC(=O)N[C@H]1[C@H]([C@H](O)[C@H](O)CO)OC(O[C@H]2[C@@H](O)[C@@H](CO)O[C@@H](O[C@@H]([C@H](O)[C@@H](O)CNc3ccccn3)[C@H](O)CO)[C@@H]2O)(C(=O)O)C[C@@H]1O (stereo partly drawn) [compound 29] | 242 | 51 |  |  |  |  |  |
| CC(=O)N[C@H]1[C@H](O[C@H]2[C@@H](O)[C@@H](CO)O[C@@H](O[C@@H]([C@H](O)[C@@H](O)CNc3ccccn3)[C@H](O)CO)[C@@H]2O)O[C@H](CO)[C@@H](O[C@@H]2O[C@@H](C)[C@@H](O)[C@@H](O)[C@@H]2O)[C@@H]1O[C@@H]1O[C@H](CO)[C@H](O)[C@H](O)[C@H]1O [compound 44] | 55 |  | 3.9 | 4.4 | 24 |  |  |
| CC(=O)N[C@H]1[C@H](O[C@H]2[C@@H](O)[C@@H](CO)O[C@@H](O[C@@H]([C@H](O)[C@@H](O)CNc3ccccn3)[C@H](O)CO)[C@@H]2O)O[C@H](CO)[C@@H](O[C@@H]2O[C@H](CO)[C@H](O)[C@H](O)[C@H]2O)[C@@H]1O[C@@H]1O[C@@H](C)[C@@H](O)[C@@H](O)[C@@H]1O [compound 45, LNFP-III] | 171 |  |  | 13 | 122 |  |  |
| GM3 (NeuGc) [compound 30] | 196 | 66 |  |  |  |  |  |
| CC(=O)N[C@H]1[C@H](O[C@H]2[C@@H](O)[C@@H](CO)O[C@@H](O[C@@H]([C@H](O)[C@@H](O)CNc3ccccn3)[C@H](O)CO)[C@@H]2O)O[C@H](CO)[C@@H](O[C@@H]2O[C@@H](C)[C@@H](O)[C@@H](O)[C@@H]2O)[C@@H]1O[C@@H]1O[C@H](CO)[C@H](O)[C@H](O)[C@H]1O[C@@H]1O[C@@H](C)[C@@H](O)[C@@H](O)[C@@H]1O [compound 46] | 44 |  |  | 9.4 | 37 |  |  |
| A-heptasaccharide [compound 48] | 56 | 42 |  |  |  | 2.5 | 17 |
